Among the test systems are A498; CCRF-CEM; COLO 205; HCT-15; HT-29; Hs-578T; M14; NCI-H226; NCI/ADR-RES; OVCAR-5; PC-3; RXF 393; SK-MEL-28; SK-MEL-5; SNB-19; T47D; U-251; UACC-257; NCI-H522; HOP-92.
What all share (assay): DTP human tumour cell line panel, 48 h

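All cell lines were grown in 96-well plates and treated with compound for 48 hours. GI50 marks 50% less growth.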 The source made the active and inactive calls. No stated cut-off is given here; in the data, active = GI50 up to about 1.1 µM and inactive = higher.

One may read the GI50 as the concentration at which growth is held to half of that of the control.

With `CO/N=C(\C)CCC#Cc1ccccc1C(=O)OC`, the GI50 in the assay on A498 is > 10 µM (inactive); in the assay on CCRF-CEM, > 10 µM (inactive); in the assay with COLO 205, > 10 µM (inactive); with HCT-15, more than 10 µM; in the assay with HT-29, > 10 µM (inactive); with Hs-578T, > 10 µM (inactive). Besides, the GI50 in the assay with M14, with NCI-H226, in the assay on NCI/ADR-RES, with OVCAR-5, in the assay with PC-3 and with RXF 393 was > 10 µM (inactive) in each case. The GI50 in the assay with SK-MEL-28, in the assay on SK-MEL-5, in the assay with SNB-19, in the assay on T47D, in the assay on U-251 and with UACC-257 was > 10 µM (inactive) in each case.

On to `CCSCCCC(=O)O`, for which the GI50 with A498 was > 100 µM (inactive); in the assay on CCRF-CEM, > 100 µM (inactive); with COLO 205 it was > 100 µM (inactive); with HCT-15, more than 100 µM; in the assay with HT-29, > 100 µM (inactive); in the assay on Hs-578T it was > 100 µM (inactive). The GI50 in the assay with M14, in the assay on NCI-H226, in the assay on NCI-H522, in the assay with NCI/ADR-RES, in the assay with OVCAR-5 and in the assay with PC-3 was > 100 µM (inactive) in each case. The GI50 with RXF 393, in the assay with SK-MEL-28, with SK-MEL-5, with SNB-19, in the assay on T47D and in the assay with U-251 was > 100 µM (inactive) each time. Moreover, the GI50 in the assay with UACC-257 is > 100 µM (inactive).

For the compound `CN1CCN(CCCN)CC1`, the GI50 was > 100 µM (inactive) with A498; > 100 µM (inactive) with CCRF-CEM; > 100 µM (inactive) in the assay with COLO 205; more than 100 µM with HCT-15; > 100 µM (inactive) in the assay on HT-29; > 100 µM (inactive) in the assay with Hs-578T. For the same compound, the GI50 with M14, with NCI-H226, with NCI-H522, with NCI/ADR-RES, in the assay on OVCAR-5 and with PC-3 was > 100 µM (inactive) in each case. Besides, the GI50 in the assay on RXF 393, in the assay on SK-MEL-28, in the assay on SK-MEL-5, in the assay on SNB-19, in the assay on T47D and in the assay on U-251 was > 100 µM (inactive) throughout. Besides, the GI50 in the assay with UACC-257 was > 100 µM (inactive).

Consider `C/C1=C\CC[C@@]2(C)O[C@@H]2C[C@@H](C2(C)CO2)CC/C(C)=C/CC1` (stereo not given in full), for which the GI50 in the assay on A498 is > 100 µM (inactive); with CCRF-CEM, 19.8 µM (inactive); in the assay on COLO 205 it was 15.6 µM (inactive); with HCT-15 it was 10.3 µM; in the assay on HOP-92, 33.7 µM (inactive); with HT-29 it was 34.4 µM (inactive). Also, the GI50 is 19.5 µM (inactive) with Hs-578T; 22.8 µM (inactive) in the assay with M14; 15.2 µM (inactive) in the assay with NCI-H226; 23.7 µM (inactive) in the assay on NCI-H522; 20.4 µM (inactive) in the assay with NCI/ADR-RES; 22.3 µM (inactive) in the assay on OVCAR-5. Also, the GI50 with PC-3 is 22 µM (inactive); in the assay with SK-MEL-28, 21.7 µM (inactive); with SK-MEL-5, 21.7 µM (inactive); with SNB-19, 19.4 µM (inactive); in the assay with T47D, 32.5 µM (inactive); in the assay with U-251, 15.4 µM (inactive). Besides, in the assay with UACC-257, the GI50 is 36.8 µM (inactive).

With `FC1(F)[Se]C2C3CCC(C3)C2C1(F)F` (stereo not given), the GI50 is > 100 µM (inactive) in the assay on A498; > 100 µM (inactive) with COLO 205; more than 100 µM with HCT-15; > 100 µM (inactive) with Hs-578T; > 100 µM (inactive) in the assay with M14; > 100 µM (inactive) in the assay on NCI-H226. Also, the GI50 in the assay on NCI-H522, in the assay on NCI/ADR-RES, in the assay with OVCAR-5, in the assay with PC-3, in the assay with RXF 393 and in the assay with SK-MEL-28 was > 100 µM (inactive) each time. The GI50 in the assay with SK-MEL-5, with SNB-19, in the assay with T47D and with U-251 was > 100 µM (inactive) throughout.

With `COC(=O)[C@@]1(C)CCC[C@]2(C(=O)O)C3Cc4occc4[C@H](C)[C@@H]3CCC21` (stereo not given in full), the GI50 was 68.7 µM (inactive) in the assay with A498; 22.3 µM (inactive) in the assay on CCRF-CEM; more than 10 µM in the assay on HCT-15; 29.4 µM (inactive) in the assay with HOP-92; 29 µM (inactive) in the assay on HT-29; 29.4 µM (inactive) in the assay with Hs-578T. For the same compound, the GI50 in the assay on M14 is 76.4 µM (inactive); in the assay with NCI-H226 it was 84.3 µM (inactive); in the assay with NCI/ADR-RES it was 25.6 µM (inactive); with OVCAR-5, > 100 µM (inactive); in the assay on PC-3 it was 23.7 µM (inactive); in the assay on RXF 393 it was 51.1 µM (inactive). For the same compound, the GI50 is > 100 µM (inactive) in the assay with SK-MEL-28; 89.1 µM (inactive) with SK-MEL-5; 71.1 µM (inactive) in the assay with SNB-19; 40.6 µM (inactive) with T47D; 31.1 µM (inactive) in the assay with U-251.

As for `COc1ccc(-c2c(N)n(-c3cccc(C(=O)O)c3)c(=O)c3cc([N+](=O)[O-])ccc23)cc1`, the GI50 with A498 was > 100 µM (inactive); in the assay with CCRF-CEM it was > 100 µM (inactive); in the assay on HCT-15, more than 100 µM; with HT-29, > 100 µM (inactive); with Hs-578T, > 100 µM (inactive); with M14, > 100 µM (inactive). In addition, the GI50 in the assay on NCI-H226, in the assay with NCI-H522, with NCI/ADR-RES, with OVCAR-5, in the assay with PC-3 and in the assay on RXF 393 was > 100 µM (inactive) in each case. Besides, the GI50 with SK-MEL-28, with SK-MEL-5, in the assay with SNB-19, in the assay with T47D, in the assay on U-251 and with UACC-257 was > 100 µM (inactive) in each case.

For the compound `COC(=O)c1cc2/c(=N/O)c3ccccc3sc2o1`, the GI50 in the assay on A498 was > 100 µM (inactive); in the assay on CCRF-CEM, > 100 µM (inactive); with COLO 205, > 100 µM (inactive); in the assay with HCT-15, more than 100 µM; in the assay on HOP-92, > 100 µM (inactive); in the assay with HT-29 it was > 100 µM (inactive). Further, the GI50 with Hs-578T is 55.5 µM (inactive); with M14, > 100 µM (inactive); in the assay on NCI-H226 it was > 100 µM (inactive); in the assay on NCI-H522, > 100 µM (inactive); in the assay with NCI/ADR-RES, > 100 µM (inactive); in the assay on OVCAR-5 it was > 100 µM (inactive). The GI50 with PC-3, in the assay on SK-MEL-28, with SK-MEL-5, with SNB-19, in the assay with T47D and with U-251 was > 100 µM (inactive) in each case. For the same compound, the GI50 in the assay on UACC-257 is > 100 µM (inactive).

For `CCOC(=O)c1ccc(-n2cnc(-c3ccc([N+](=O)[O-])cc3)c2)cc1`, the GI50 in the assay on A498 is > 100 µM (inactive); in the assay with CCRF-CEM, > 100 µM (inactive); in the assay on COLO 205 it was > 100 µM (inactive); in the assay with HCT-15 it was more than 100 µM; with HT-29, > 100 µM (inactive); with Hs-578T, > 100 µM (inactive). The GI50 in the assay with M14 was > 100 µM (inactive); in the assay on NCI-H226, > 100 µM (inactive); with NCI-H522, 13.1 µM (inactive); with NCI/ADR-RES it was > 100 µM (inactive); with OVCAR-5 it was > 100 µM (inactive); in the assay on PC-3 it was > 100 µM (inactive). Further, the GI50 with SK-MEL-28 was > 100 µM (inactive); with SK-MEL-5 it was 25.3 µM (inactive); in the assay with SNB-19, 35.7 µM (inactive); in the assay with T47D it was 95.7 µM (inactive); with U-251, 25.2 µM (inactive); with UACC-257, > 100 µM (inactive).

Consider `C=C1CC(COc2ccc3c(C)c(Cl)c(=O)oc3c2)(c2ccccc2)OC1=O` (stereo not given), for which the GI50 was 11.8 µM (inactive) in the assay on A498; 0.302 µM (active) in the assay with CCRF-CEM; 0.675 µM (active) with COLO 205; 2.26 µM in the assay with HCT-15; 1.47 µM (inactive) in the assay on HOP-92; 1.24 µM (inactive) in the assay with HT-29. Moreover, the GI50 with Hs-578T is 5.58 µM (inactive); in the assay with M14, 1.04 µM (active); in the assay on NCI-H226, 2.34 µM (inactive); with NCI-H522, 1.14 µM (inactive); in the assay on NCI/ADR-RES it was 2.97 µM (inactive); with OVCAR-5, 12.4 µM (inactive). The GI50 in the assay on PC-3 is 1.9 µM (inactive); with SK-MEL-28, 2.11 µM (inactive); in the assay with SK-MEL-5 it was 1.74 µM (inactive); with SNB-19, 13.8 µM (inactive); in the assay on T47D it was 2.04 µM (inactive); with U-251, 8.15 µM (inactive). Also, the GI50 with UACC-257 was 1.61 µM (inactive).

For the compound `O=C(CN1CCCCC1)c1ccc2c(c1)Sc1ccccc1O2`, the GI50 was 16 µM (inactive) with A498; 12.6 µM (inactive) with CCRF-CEM; 7.73 µM (inactive) in the assay on COLO 205; 11 µM in the assay with HCT-15; 7.64 µM (inactive) in the assay on HOP-92; 10.9 µM (inactive) with HT-29. In addition, the GI50 in the assay with Hs-578T was 5.18 µM (inactive); in the assay on M14, 14.1 µM (inactive); with NCI-H226 it was 14.2 µM (inactive); in the assay with NCI/ADR-RES, 16.7 µM (inactive); in the assay with OVCAR-5, 15 µM (inactive); in the assay on PC-3, 11.6 µM (inactive). Further, the GI50 with RXF 393 is 4.12 µM (inactive); in the assay with SK-MEL-28, 18.7 µM (inactive); in the assay with SNB-19, 13.7 µM (inactive); in the assay with T47D, 22.8 µM (inactive); in the assay on U-251, 15.5 µM (inactive); in the assay with UACC-257, 18.5 µM (inactive).

Source of the values: ChEMBL document CHEMBL1201862, “PubChem BioAssay data set” (2004).
